6 compounds from US12187709B2 (Genentech, Inc., priority 2021, dated 2025) can be followed below.

In test [1] the target is Cbl-b (Homo sapiens (Human), UniProt Q13191). In words: Cbl-b LCK Ub TR-FRET assay (Cbl-b Lck HTRF). The format is biochemical. Conditions: for IC50: Cbl-b LCK Ub TR-FRET; for fold-selectivity (Cbl-b over C-cbl): ratio C-cbl Lck HTRF IC50 / Cbl-b Lck HTRF IC50. An outline of the steps:
(§1)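 After the ubiquitination reaction, detection mixture was added and plates incubated 20 min at room temperature before reading. IC50 values were calculated with wells lacking LCK as the low control and DMSO as the high control.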
A general note: In TR-FRET formats the signal depends on donor and acceptor labels being close together.

Test [2] has as its target Human Cbl-b (residues 40-426) (Homo sapiens (Human), UniProt Q13191). In words: Cbl-b SPR assay. Conditions: for Fold of selectivity: C-cbl SPR Kd vs Cbl-b SPR Kd; for Kd: SPR, 20° C. In kind it is binding. An outline of the steps: (§2)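 Protein captured at 1300-1500 RU; compounds run as 6-point 2-fold series in multi-cycle kinetics (60 s contact, 40 μl/min, 120-1200 s dissociation), fitted 1:1. For slow binders, kd came from chaser-compound occupancy over time, fixed in a single-cycle fit (5 concentrations, top 500 nM).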
On the technique in general: In SPR one partner is held on a chip, and binding of the other changes the refractive index at the surface.

The target of test [3] is c-Cbl (residues 47-435) (Homo sapiens (Human), UniProt P22681). In words: c-Cbl SPR assay. In kind it is binding. The conditions noted are these: 20° C. An outline of the steps: as §2
Test [4] concerns the target c-Cbl (Homo sapiens (Human), UniProt P22681). In words: C-Cbl LCK Ub TR-FRET assay (C-cbl Lck HTRF). The format is biochemical. In outline:
as §1

The term IC50 denotes the midpoint of a concentration-inhibition curve. A low value points to greater potency. Broadly, the Kd is the concentration at which binding is half-saturated. A lower Kd goes with higher affinity.

Structures are written as SMILES.

Sequence of c-Cbl (residues 47-435) (P22681 47-435): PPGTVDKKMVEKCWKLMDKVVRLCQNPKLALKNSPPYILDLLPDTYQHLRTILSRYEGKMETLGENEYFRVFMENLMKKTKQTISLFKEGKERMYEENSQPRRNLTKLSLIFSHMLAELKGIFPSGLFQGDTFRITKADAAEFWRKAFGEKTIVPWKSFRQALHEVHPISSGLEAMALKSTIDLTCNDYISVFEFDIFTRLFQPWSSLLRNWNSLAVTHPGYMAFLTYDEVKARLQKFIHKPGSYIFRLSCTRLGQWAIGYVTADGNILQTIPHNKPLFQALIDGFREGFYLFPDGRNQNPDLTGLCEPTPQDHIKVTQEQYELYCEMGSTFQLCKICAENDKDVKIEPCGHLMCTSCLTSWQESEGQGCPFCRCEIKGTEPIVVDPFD
Sequence of c-Cbl (P22681 47-435): as above
Sequence of Human Cbl-b (residues 40-426) (Q13191 40-426): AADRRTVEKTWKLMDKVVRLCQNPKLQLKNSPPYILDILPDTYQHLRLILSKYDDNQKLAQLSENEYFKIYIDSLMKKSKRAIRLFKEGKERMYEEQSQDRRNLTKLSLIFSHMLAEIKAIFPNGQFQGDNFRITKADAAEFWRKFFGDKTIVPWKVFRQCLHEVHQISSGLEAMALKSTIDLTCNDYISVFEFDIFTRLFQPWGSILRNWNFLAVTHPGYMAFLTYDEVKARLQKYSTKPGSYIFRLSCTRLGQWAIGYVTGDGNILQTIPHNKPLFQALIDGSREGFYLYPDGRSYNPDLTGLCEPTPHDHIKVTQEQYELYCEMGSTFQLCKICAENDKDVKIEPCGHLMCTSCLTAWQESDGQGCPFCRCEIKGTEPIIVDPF
Sequence of Cbl-b (Q13191 40-426): as above

Take `CCOc1cc(C2(c3nncn3C)CC(F)(F)C2)cc(N2Cc3c(cc(CNC4(C)CCC4)cc3C(F)(F)F)C2=O)n1` [Compound 182, 2-(4-(3,3-difluoro-1-(4-methyl-4H-1,2,4-triazol-3-yl)cyclobutyl)-6-ethoxypyridin-2-yl)-6-(((1-methylcyclobutyl)amino)methyl)-4-(trifluoromethyl)isoindolin-1-one]: the IC50 in test [1] and in test [4] was 11 nM each time. In test [1], the “fold-selectivity (Cbl-b over C-cbl)” value is 1.0x. The compound also returned a Fold of selectivity in test [2] of 2.7×. Also, the Kd worked out at 0.35 nM in test [2] and 0.85 nM in test [3].

Consider `Cn1cnnc1[C@]1(c2cc(NC3CCCC3)cc(N3Cc4c(cc(CNC5(C)CCC5)cc4C(F)(F)F)C3=O)c2)C[C@@H](C)C1` [Compound 183, 2-(3-(cyclopentylamino)-5-((1r,3r)-3-methyl-1-(4-methyl-4H-1,2,4-triazol-3-yl)cyclobutyl)phenyl)-6-(((1-methylcyclobutyl)amino)methyl)-4-(trifluoromethyl)isoindolin-1-one], for which, in test [1], the IC50 worked out at 18 nM and the “fold-selectivity (Cbl-b over C-cbl)” value worked out at 3.4x. Besides, in test [2], the Fold of selectivity is 5.8× and binding was characterised by a dissociation constant (Kd) of 3.2 nM. The compound also displayed a Kd in test [3] of 18 nM. The same compound returned an IC50 in test [4] of 58 nM.

Regarding `Cn1cnnc1[C@]1(c2cc(OC3CCCC3)cc(N3Cc4c(cc(CNC5(C)CCC5)cc4C(F)(F)F)C3=O)c2)C[C@H](C)C1` [Compound 186, 2-(3-(cyclopentyloxy)-5-((1s,3s)-3-methyl-1-(4-methyl-4H-1,2,4-triazol-3-yl)cyclobutyl)phenyl)-6-(((1-methylcyclobutyl)amino)methyl)-4-(trifluoromethyl)isoindolin-1-one], in test [1], half-maximal inhibition (IC50) required 35 nM and the “fold-selectivity (Cbl-b over C-cbl)” value was found to be 2.9x. In test [2], the Fold of selectivity was found to be 5.2× and the Kd was 13 nM. For the same compound, the Kd in test [3] amounted to 72 nM. The same compound returned an IC50 in test [4] of 100 nM.

`Cn1cnnc1C1(c2cc(NCCC#N)nc(N3Cc4c(cc(CNC5(C)CCC5)cc4C(F)(F)F)C3=O)c2)CC2(COC2)C1` [Compound 187, 3-((4-(6-(4-methyl-4H-1,2,4-triazol-3-yl)-2-oxaspiro[3.3]heptan-6-yl)-6-(6-(((1-methylcyclobutyl)amino)methyl)-1-oxo-4-(trifluoromethyl)isoindolin-2-yl)pyridin-2-yl)amino)propanenitrile]: in test [1], the IC50 is 11 nM and the “fold-selectivity (Cbl-b over C-cbl)” value stood at 1.0x. In test [2], this compound showed a Fold of selectivity of 15× and a Kd of 0.95 nM. For the same compound, the Kd in test [3] worked out at 15 nM. The same compound showed a concentration for half-maximal inhibition (IC50) in test [4] of 22 nM.

As for `Cn1cnnc1C1(c2cc(NC3CCCC3)nc(N3Cc4c(cc(CNC5(C)CCC5)cc4C(F)(F)F)C3=O)c2)CC2(COC2)C1` [Compound 188, 2-(6-(cyclopentylamino)-4-(6-(4-methyl-4H-1,2,4-triazol-3-yl)-2-oxaspiro[3.3]heptna-6-yl)pyridin-2-yl)-6-(((1-methylcyclobutyl)amino)methyl)-4-(trifluoromethyl)isoindolin-1-one], the IC50 turned out to be 16 nM in test [1] and 180 nM in test [4]. In test [1], the “fold-selectivity (Cbl-b over C-cbl)” value is 11x. The same compound gave a Fold of selectivity in test [2] of 22×. Further, the results for the Kd in test [2] and in test [3] were 4.7 nM and 100 nM, respectively.

On to `CCOc1cc(N2Cc3c(cc(CNC4(C)CCC4)cc3C(F)(F)F)C2=O)cc([C@]2(c3nncn3C)C[C@H](C)C2)c1` [Compound 189, 2-(3-ethoxy-5-((1r,3r)-3-methyl-1-(4-methyl-4H-1,2,4-triazol-3-yl)cyclobutyl)phenyl)-6-(((1-methylcyclobutyl)amino)methyl)-4-(trifluoromethyl)isoindolin-1-one], for which, in test [1], half-maximal inhibition (IC50) was put at 7.2 nM and the “fold-selectivity (Cbl-b over C-cbl)” value is 0.56x. Further, in test [2], the Fold of selectivity was determined as 3.3× and the Kd was 0.3 nM. The compound further displayed a Kd in test [3] of 1 nM. Inhibition in test [4] was half-maximal at 4.1 nM (IC50).
